# Measured values published in patent US20130121994A1, “TRIAZOLOPYRIDINE DERIVATIVES” (BAYER INTELLECTUAL PROPERTY GMBH, priority 2009, published 2013).
# Biological target: T1, human kinase Mps-1 (Homo sapiens, UniProt P33981)
# T1 construct: N-terminally GST-tagged human full length recombinant Mps-1 kinase; GST (N); purchased Invitrogen, Karslruhe, Germany PV4071
# T1 sequence (P33981 1-857): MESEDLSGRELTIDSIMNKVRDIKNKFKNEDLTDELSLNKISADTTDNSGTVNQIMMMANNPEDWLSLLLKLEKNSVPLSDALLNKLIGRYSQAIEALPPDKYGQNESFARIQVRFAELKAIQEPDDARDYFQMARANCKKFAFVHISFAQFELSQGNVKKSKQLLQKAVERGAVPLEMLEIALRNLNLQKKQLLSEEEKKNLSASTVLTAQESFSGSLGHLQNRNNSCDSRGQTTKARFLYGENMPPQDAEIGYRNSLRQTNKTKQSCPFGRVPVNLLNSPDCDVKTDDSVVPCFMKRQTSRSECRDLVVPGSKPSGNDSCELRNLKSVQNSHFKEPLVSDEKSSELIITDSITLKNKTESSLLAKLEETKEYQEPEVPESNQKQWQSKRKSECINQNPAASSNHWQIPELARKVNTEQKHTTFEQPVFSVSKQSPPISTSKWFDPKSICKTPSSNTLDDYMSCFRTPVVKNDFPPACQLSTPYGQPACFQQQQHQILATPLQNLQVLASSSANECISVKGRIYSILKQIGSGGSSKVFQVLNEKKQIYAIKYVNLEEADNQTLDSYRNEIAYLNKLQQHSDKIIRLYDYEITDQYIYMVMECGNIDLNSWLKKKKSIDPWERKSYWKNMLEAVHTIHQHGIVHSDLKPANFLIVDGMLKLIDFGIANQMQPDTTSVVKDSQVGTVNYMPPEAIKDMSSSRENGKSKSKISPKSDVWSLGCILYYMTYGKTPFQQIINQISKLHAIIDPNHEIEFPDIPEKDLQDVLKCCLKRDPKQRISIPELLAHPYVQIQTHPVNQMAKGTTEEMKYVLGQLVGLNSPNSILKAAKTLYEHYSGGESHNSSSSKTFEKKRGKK
# Test: Mps-1 kinase assay (HTRF)
# Assay type: biochemical
# Description: The human kinase Mps-1 phosphorylates a biotinylated substrate peptide. Detection of the phosphorylated product is achieved by homogenous time-resolved fluorescence resonance energy transfer (HTRF) from Europium-labelled anti-phospho-Serine/Threonine antibody as donor to streptavidin labelled with cross-linked allophycocyanin (SA-XLent) as acceptor. Compounds are tested for their inhibition of the kinase activity.
# N-terminally GST-tagged human full length recombinant Mps-1 kinase (purchased from Invitrogen, Karslruhe, Germany, cat. no PV4071) was used. As substrate for the kinase reaction a biotinylated peptide of the amino-acid sequence […] (C-terminus in amide form, purchased from Biosynthan GmbH, Berlin) was used.
# The concentration of Mps-1 in the assay was adjusted to the activity of the enzyme lot and was chosen appropriate to have the assay in the linear range, typical enzyme concentrations were in the range of about 1 nM (final conc. in the 5 μl assay volume).
# The resulting mixture was incubated 1 h at 22° C. to allow the binding of the phosphorylated peptide to the anti-phospho(Ser/Thr)-Europium-antibody. Subsequently the amount of phosphorylated substrate was evaluated by measurement of the resonance energy transfer from the Europium-labelled anti-phospho(Ser/Thr) antibody to the Streptavidin-XLent.
row,SMILES,IC50
1,"COc1cc(C#N)ccc1Nc1nc2ccc(-c3cc(C)c(O)c(C)c3)cn2n1 [Example 1.1, 4-{[6-(4-hydroxy-3,5-dimethylphenyl)[1,2,4]triazolo[1,5-a]pyridin-2-yl]amino}-3-methoxybenzonitrile]",17 nM
2,"COc1ccc(Nc2nc3ccc(-c4cc(C)c(O)c(C)c4)cn3n2)c(OC)c1 [Example 1.2, 4-{2-[(2,4-dimethoxyphenyl)amino] [1,2,4]triazolo[1,5-a]pyridin-6-yl}-2,6-dimethylphenol]",180 nM
3,"Cc1cc(-c2ccc3nc(Nc4cncnc4)nn3c2)cc(C)c1O [Example 1.4, 2,6-dimethyl-4-[2-(pyrimidin-5-ylamino)[1,2,4]triazolo [1,5-a]pyridin-6-yl]phenol]",2700 nM
4,"COc1ccc(F)cc1Nc1nc2ccc(-c3cc(C)c(O)c(C)c3)cn2n1 [Example 1.6, 4-{2-[(5-fluoro-2-methoxyphenyl)amino] [1,2,4]triazolo[1,5-a]pyridin-6-yl}-2,6-dimethylphenol]",150 nM
5,"Cc1cc(-c2ccc3nc(Nc4cccnc4)nn3c2)cc(C)c1O [Example 1.8, 2,6-dimethyl-4-[2-(pyridin-3-ylamino)[1,2,4]triazolo [1,5-a]pyridin-6-yl]phenol]",320 nM
6,"Cc1cc(-c2ccc3nc(Nc4ccccc4OC(F)(F)F)nn3c2)cc(C)c1O [Example 1.10, 2,6-dimethyl-4-(2-{[2-(trifluoromethoxy)phenyl]amino}[1,2,4]tri-azolo[1,5-a]pyridin-6-yl)phenol]",140 nM
7,"CCOc1ccccc1Nc1nc2ccc(-c3cc(C)c(O)c(C)c3)cn2n1 [Example 1.12, 4-{2-[(2-ethoxyphenyl)amino] [1,2,4]triazolo[1,5-a]pyridin-6-yl}-2,6-dimethylphenol]",92 nM
8,"COc1ccc(C#N)cc1Nc1nc2ccc(-c3cc(C)c(O)c(C)c3)cn2n1 [Example 1.13, 3-{[6-(4-hydroxy-3,5-dimethylphenyl)[1,2,4]triazolo[1,5-a]pyridin-2-yl]amino}-4-methoxybenzonitrile]",640 nM
9,"COc1cccnc1Nc1nc2ccc(-c3cc(C)c(O)c(C)c3)cn2n1 [Example 1.14, 4-{2-[(3-methoxypyridin-2-yl)amino][1,2,4]tri-azolo[1,5-a]pyridin-6-yl}-2,6-dimethylphenol]",160 nM
10,"CNC(=O)c1ccc(Nc2nc3ccc(-c4cc(C)c(O)c(C)c4)cn3n2)cc1 [Example 1.15, 4-{[6-(4-hydroxy-3,5-dimethylphenyl)[1,2,4]triazolo[1,5-a]pyridin-2-yl]amino}-N-methylbenzamide]",23 nM
11,"CCN(CC)C(=O)c1ccc(Nc2nc3ccc(-c4cc(C)c(O)c(C)c4)cn3n2)c(OC)c1 [Example 1.16, N,N-Diethyl-4-[6-(4-hydroxy-3,5-dimethyl-phenyl)-[1,2,4]triazolo[1,5-a]pyridin-2-ylamino]-3-methoxy-benzamide]",280 nM

# Other lines, results leading:
row,IC50,SMILES
1,6.72 nM,"COC(C)CNC(=O)c1cccc(-c2ccc3nc(Nc4ccccc4C#N)nn3c2)c1 (racemic) [Example 11.053, rac-3-{2-[(2-cyanophenyl)amino][1,2,4]triazolo[1,5-a]pyridin-6-yl}-N-(2-methoxypropyl)benzamide]"
2,470 nM,"COc1ccc(F)cc1Nc1nc2ccc(-c3cccc(NC(C)=O)c3)cn2n1 [Example 2.2, N-(3-{2-[(5-fluoro-2-methoxyphenyl)amino] [1,2,4]triazolo[1,5-a]pyridin-6-yl}phenyl)acetamide]"
3,3100 nM,"CC(=O)Nc1cccc(-c2ccc3nc(Nc4cccnc4)nn3c2)c1 [Example 2.4, N-{3-[2-(pyridin-3-ylamino)[1,2,4]triazolo [1,5-a]pyridin-6-yl]phenyl}acetamide]"
4,770 nM,"CC(=O)Nc1cccc(-c2ccc3nc(Nc4ccc(S(C)(=O)=O)cc4)nn3c2)c1 [Example 2.5, N-[3-(2-{[4-(methylsulfonyl)phen-yl]amino}[1,2,4]triazolo [1,5-a]pyridin-6-yl)phenyl]acetamide]"
5,340 nM,"CC(=O)Nc1cccc(-c2ccc3nc(Nc4ccccc4OC(F)(F)F)nn3c2)c1 [Example 2.6, N-[3-(2-{[2-(trifluoromethoxy)phenyl]amino}[1,2,4]tri-azolo[1,5-a]pyridin-6-yl)phenyl]acetamide]"
6,3300 nM,"CC(=O)Nc1cccc(-c2ccc3nc(Nc4ccc(OC(F)(F)F)cc4)nn3c2)c1 [Example 2.7, N-[3-(2-{[4-(trifluoromethoxy)phenyl]amino}[1,2,4]tri-azolo[1,5-a]pyridin-6-yl)phenyl]acetamide]"
7,1000 nM,"CC(=O)Nc1cccc(-c2ccc3nc(Nc4ccc(C#N)cc4)nn3c2)c1 [Example 2.8, N-(3-{2-[(4-cyanophenyl)amino] [1,2,4]triazolo[1,5-a]pyridin-6-yl}phenyl)acetamide]"
8,1800 nM,"CC(=O)Nc1cccc(-c2ccc3nc(Nc4ccc(C(C)C)cc4)nn3c2)c1 [Example 2.9, N-[3-(2-{[4-(propan-2-yl)phenyl]amino}[1,2,4]triazolo[1,5-a]pyridin-6-yl)phenyl]acetamide]"
9,130 nM,"CCOc1ccccc1Nc1nc2ccc(-c3cccc(NC(C)=O)c3)cn2n1 [Example 2.10, N-(3-{2-[(2-ethoxyphenyl)amino] [1,2,4]triazolo[1,5-a]pyridin-6-yl}phenyl)acetamide]"
10,3500 nM,"COc1cccnc1Nc1nc2ccc(-c3cccc(NC(C)=O)c3)cn2n1 [Example 2.11, N-(3-{2-[(3-methoxypyridin-2-yl)amino][1,2,4]triazolo [1,5-a]pyridin-6-yl}phenyl)acetamide]"
11,200 nM,"COc1cc(C#N)ccc1Nc1nc2ccc(-c3cccc(NC(C)=O)c3)cn2n1 [Example 2.12, N-(3-{2-[(4-cyano-2-methoxyphenyl)amino] [1,2,4]triazolo[1,5-a]pyridin-6-yl}phenyl)acetamide]"
12,860 nM,"N#Cc1ccccc1Nc1nc2ccc(-c3ccccc3)cn2n1 [Example 3.1, 2-[(6-phenyl[1,2,4]triazolo[1,5-a]pyridin-2-yl)amino]benzonitrile]"
13,52 nM,"N#Cc1ccccc1Nc1nc2ccc(-c3cccc(CO)c3)cn2n1 [Example 3.2, 2-({6-[3-(hydroxymethyl)phen-yl][1,2,4]triazolo[1,5-a]pyridin-2-yl}amino)benzonitrile]"
14,630 nM,"Cc1cccc(-c2ccc3nc(Nc4ccccc4C#N)nn3c2)c1 [Example 3.3, 2-{[6-(3-methylphenyl)[1,2,4]triazolo[1,5-a]pyridin-2-yl]amino}benzonitrile]"
15,6100 nM,"CC(=O)Nc1ccccc1-c1ccc2nc(Nc3ccccc3C#N)nn2c1 [Example 3.4, N-(2-{2-[(2-cyanophenyl)amino] [1,2,4]triazolo[1,5-a]pyridin-6-yl}phenyl)acetamide]"
16,240 nM,"CS(=O)(=O)Nc1cccc(-c2ccc3nc(Nc4ccccc4C#N)nn3c2)c1 [Example 3.5, N-(3-{2-[(2-cyanophenyl)amino] [1,2,4]triazolo[1,5-a]pyridin-6-yl}phenyl)methane-sulfonamide]"
17,940 nM,"N#Cc1ccccc1Nc1nc2ccc(-c3ccc4cc[nH]c4c3)cn2n1 [Example 3.6, 2-{[6-(1H-indol-6-yl)[1,2,4]triazolo[1,5-a]pyridin-2-yl]amino}benzonitrile]"
18,140 nM,"N#Cc1ccccc1Nc1nc2ccc(-c3ccc(C(N)=O)cc3)cn2n1 [Example 3.7, 4-{2-[(2-cyanophenyl)amino] [1,2,4]triazolo[1,5-a]pyridin-6-yl}benzamide]"
